Measurements as given in patent US20150086627A1, “DOSAGE FORMS OF HALOFUGINONE AND METHODS OF USE” (priority 2012, published 2015).
Counter-ions that a name gives are not always drawn. Like-named read-outs stand apart in the source and are kept apart here.

Columns and labels:
[1] = Plasma pharmacokinetics of halofuginone in male beagle dogs (Example B); assay type: in vivo; details: dog
Method: Five groups of five male beagle dogs (25 total dogs) were orally administered various compositions of halofuginone solutions. […] The dogs were fasted overnight prior to administration, and food was returned four hours post-administration. Plasma was drawn from each animal at the time of administration, and then at eight successive time points (0.5, 1, 2, 4, 8, 12, 24, and 48 hours post-administration).
The plasma samples, collected from the dogs at the various time points, were assayed for halofuginone concentrations using HPLC-MS/MS (ACE Excel 2C18 AR, 50×2.1 mm column). [Cmax: maximum observed halofuginone concentration; tmax: time point at Cmax; AUC(0-t): AUC to the last non-zero concentration (t is the corresponding time); AUC(0-∞): AUC(0-∞)=AUC(0-t)+AUC(t-∞); t1/2: half-life; time taken for drug plasma concentration to fall by one-half; Vz_obs: observed volume of distribution; Cl_obs: observed clearance]

mice = details: mouse, in vivo, cited from earlier work
[2] = test system: vascular SMC and fibroblasts; details: cited from earlier work
[3] = Plasma pharmacokinetics of Halofuginone hydrobromide in Beagle dogs (Example C); details: dog, in vivo; for half-life: t1/2
Method: Blood samples were collected from the jugular, cephalic, or saphenous veins into tubes containing EDTA at the following time points: 0, 0.5, 1, 2, 4, 8, 12, 24, and 48 h postdose. Blood samples were kept on wet ice until processing. Blood samples were centrifuged at 3200 RPM for 10 min at ˜5° C. Plasma samples were directly transferred to a 96-well plate tube (1.1 mL). Plug caps were placed on the tubes. Plasma samples were stored at −20±5° C. until they were shipped for analysis.
Statistical analysis of PK parameters for dogs treated with both enteric and oral solutions were calculated using Excel® spreadsheets. Summary statistics were derived for the following PK parameters for each dog receiving both the dog EC tablets and the oral drug as a clear solution in Group 1: • Cmax (ng/mL): Maximum Observed Concentration • tmax (h): Time Point at Cmax • AUC(0−t) (ng·h/mL): AUC to the last non-zero concentration (t is the corresponding time) • AUC(0−∞) (ng·h/mL): AUC(0-∞)=AUC(0-t)+AUC(t-∞) • t1/2(h): Half-life; time taken for drug plasma concentration to fall by one-half • % F: Bioavailability; [AUC(0-t)×*Dose IV (mg/kg)]/[AUC(0-t)IV*Dose×(mg/kg)] Paired differences for each dog were determined by subtracting the summary PK value as follows: […]

Plasmodium berghei = details: Plasmodium berghei-infected mice; cited from earlier work
beagle dogs = details: 6 Beagle dogs, oral solution 0.15 mg/kg
Method: Two groups of 6 male Beagle dogs were dosed with two formulations or two routes of administration of Halofuginone hydrobromide. In a cross-over study design, one group received an oral (PO) dose at ˜0.15 mg/kg as enteric-coated (EC) tablets in a gelatin capsule and then another oral dose at 0.15 mg/kg as a solution 7 days later. The second group received a subcutaneous (SC) dose at 0.03 mg/kg as a solution and then an intravenous (IV) dose at 0.05 mg/kg as a solution. The test article was administered once for each dose level and dosage form. The animals were dosed once a week or after completing at least a 7 day washout period. The dose formulations of Halofuginone hydrobromide were EC tablets or 0.3 mg/mL solutions. The EC tablets contained 0.075 mg of Halofuginone hydrobromide. The tablets (20/dog) were loaded into a gelatin capsule prior to dosing.
Each animal received a physical examination prior to dosing, with cage side observations for mortality and morbidity twice daily thereafter. Detailed clinical observations were performed prior to dosing and at 15 minute (min) intervals during the first 2 hours (h) postdose, at 4, 8, and 24 h postdose on dosing days. […]

[4] = test system: human leiomyosarcoma tumor cells; details: low concentrations; cells stimulated by serum or HB-EGF; cited from earlier work
mdx mice = details: cited from earlier work
dogs = assay: Previous study in dogs, daily oral dosing for up to 28 days; assay type: in vivo
Method: The dose levels were selected based on the results of a previous study in dogs in which the high-dose group was dosed at 0.15 mg/kg/day for up to 28 days (this dose was tolerated for the entire course of the study).

cell lines = details: cited from earlier work
[5] = male, beagle, in vivo, po, 0.15 mg/kg
[6] = male, Beagle, iv, 0.05 mg/kg, Mean Conc. (plasma)
[7] = male, Beagle, iv, 0.05 mg/kg, Sample Conc. (plasma)
[8] = male, Beagle, po, 0.15 mg/kg, Mean Conc. (plasma)
[9] = male, Beagle, sc, 0.03 mg/kg, Mean Conc. (plasma)
[10] = male, Beagle, sc, 0.03 mg/kg, Sample Conc. (plasma)

Compound: O=C(C[C@@H]1NCCC[C@H]1O)Cn1cnc2cc(Br)c(Cl)cc2c1=O [Halofuginone hydrobromide, 7-Bromo-6-chloro-3-[3-[(2S,3R)-3-hydroxy-2-piperidinyl]-2-oxopropyl]-4-quinazolinone]
- half-life ([1]; plasma, male beagle dogs, oral 0.15 mg/kg aqueous solution, mean): 889 min
- AUC(0-inf) [1, 5]: 49.1 ng·h/mL
- AUC(0-t) [1, 5]: 39.5 ng·h/mL
- Cl_obs [1, 5]: 57.8 mL/min/kg
- Cmax [1, 5]: 5.26 ng/mL
- Tmax [1, 5]: 54 min
- Vz_obs [1, 5]: 70.73 L/kg
- gastrointestinal tract injuries (mice; 5 mg/kg): widespread gastrointestinal tract injuries, e.g., intestinal hemorrhage
- gastrointestinal tract injuries (mice; sc): did not experience the same levels of gastrointestinal tract injuries
- growth of vascular SMC and fibroblasts [2]: inhibits autocrine growth of vascular SMC and fibroblasts
- absolute bioavailability versus oral solution [3]: increased
- Cmax ([3]; male, Beagle, iv, 0.05 mg/kg): 6.95 ng/mL
- concentration at 0.083 h [3, 6]: 6.96 ng/mL
- concentration at 0.5 h [3, 6]: 4.47 ng/mL
- concentration at 1 h [3, 6]: 3.81 ng/mL
- concentration at 2 h [3, 6]: 2.29 ng/mL
- concentration at 4 h [3, 6]: 1.74 ng/mL
- concentration at 8 h [3, 6]: 1.08 ng/mL
- concentration at 12 h [3, 6]: 0.76 ng/mL
- concentration at 24 h [3, 6]: 0.67 ng/mL
- concentration at 48 h [3, 6]: 0.23 ng/mL
- concentration at 0.083 h [3, 7]: 7.81 ng/mL
- concentration at 0.5 h [3, 7]: 5.52 ng/mL
- concentration at 1 h [3, 7]: 3.55 ng/mL
- concentration at 2 h [3, 7]: 2.13 ng/mL
- concentration at 8 h [3, 7]: 0.8 ng/mL
- half-life ([3]; male, Beagle, iv, 0.05 mg/kg): 621 min
- Tmax ([3]; male, Beagle, iv, 0.05 mg/kg, tmax): 4.8 min
- concentration at 0.5 h [3, 8]: 6.41 ng/mL
- concentration at 1 h [3, 8]: 4.97 ng/mL
- concentration at 2 h [3, 8]: 3.68 ng/mL
- concentration at 4 h [3, 8]: 1.87 ng/mL
- concentration at 8 h [3, 8]: 1.38 ng/mL
- concentration at 12 h [3, 8]: 1.14 ng/mL
- concentration at 24 h [3, 8]: 0.53 ng/mL
- concentration at 48 h [3, 8]: 0.2 ng/mL
- half-life ([3]; male, Beagle, po, 0.15 mg/kg): 810 min
- Tmax ([3]; male, Beagle, po, 0.15 mg/kg, tmax): 34.8 min
- Sample Conc. (plasma) ([3]; male, Beagle, sc, 0.03 mg/kg, 48 h): 0.12 ng/mL
- Cmax ([3]; male, Beagle, sc, 0.03 mg/kg): 3.66 ng/mL
- concentration at 0.5 h [3, 9]: 3.62 ng/mL
- concentration at 1 h [3, 9]: 1.79 ng/mL
- concentration at 2 h [3, 9]: 1.4 ng/mL
- concentration at 4 h [3, 9]: 1 ng/mL
- concentration at 8 h [3, 9]: 0.63 ng/mL
- concentration at 12 h [3, 9]: 0.51 ng/mL
- concentration at 24 h [3, 9]: 0.14 ng/mL
- concentration at 0.5 h [3, 10]: 2.82 ng/mL
- concentration at 1 h [3, 10]: 1.67 ng/mL
- concentration at 48 h [3, 10]: 0.16 ng/mL
- Tmax ([3]; male, Beagle, sc, 0.03 mg/kg, tmax): 30 min
- Tmax ([3]; male, beagle, po, 0.15 mg/kg): 60 min
- curative effects (Plasmodium berghei): displayed curative effects
- parasitemias (Plasmodium berghei): reduce parasitemias to undetectable levels
- animals with emesis (beagle dogs): 5 of 6
- episodes of emesis (total emetic events) (beagle dogs): 18
- inhibition of DNA synthesis [4]: strong inhibitor of DNA synthesis
- muscle physiology / muscle regeneration (mdx mice): effective in improving muscle physiology and/or reducing the pressure on muscle regeneration
- clinical signs of toxicity (dogs; 0.15 mg/kg/day for up to 28 days): emesis and decreased activity during the first week of dosing
- tolerability (dogs; high-dose group 0.15 mg/kg/day for up to 28 days): tolerated
- angiogenesis inhibition (cell lines): effective angiogenesis inhibitor
